According to patent publication US12723235B2, “Method for expanding hepatocyte in vitro and application” (Center for Excellence in Molecular Cell Science, Chinese …, priority 2018, dated 2026):
Read-outs that look alike come from different tables or passages of the source.

Columns and labels:
human hepatocytes = test: Expansion of human hepatocytes in HM medium with, without or with replaced Wnt signaling pathway agonist (6 days); assay type: cell-based; conditions: 50 ng/ml Wnt3a purified protein or CHIR 0.1 μM
From the text: (§1) A. Cell photographs of human hepatocytes cultured for 6 days in: HM medium containing Wnt3a conditioned medium, HM medium without Wnt3a conditioned medium, HM medium containing Wnt3a purified protein instead of Wnt3a conditioned medium, and HM medium containing CHIR instead of Wnt3a conditioned medium.
as §1, with “B. Fold of expansion” for “A. Cell photographs”
Cryopreserved human liver cells were purchased from Celsis In Vitro Technologies (Baltimore, MD, U.S.). The cryopreserved human hepatocytes were resuscitated in DMEM medium containing 10% serum, and seeded in a collagen-I-coated plate at 2*10^4 cells/cm^2. The culture plate was incubated at 37° C. in a 5% CO2, 5% O2 incubator. The medium was changed to the hepatocyte medium one day after seeding and every 3 days thereafter. After 6 days of culture, the fully grown cells were trypsinized and seeded in a collagen-I-coated plate at 3*10^4 cells/cm^2. The culture plate was incubated at 37° C. in a 5% CO2 and 5% O2 incubator.
The HM medium contains a variety of growth factors and small molecule compounds.

ProliHHs [1] = system: ProliHHs
From the text: (§2) The fully grown proliferating human hepatocytes are trypsinized and re-suspended in the hepatocyte medium, and seeded in a non-attached 24-well plate (Elplasia, Japan) at 5*10^5 cells/well. One day later, the medium was replaced with the hepatocyte induction medium, and the cells will slowly aggregate into cell spheres. The medium was changed every 2 days, and the induced cells were collected 10 days after the induction.
(§3) • 1) Extract cellular RNA by Trizol (Invitrogen) or RNeasy FFPE Kit (Qiagen). • 2) Obtain cDNA by M-MLV reverse transcriptase (Promega) kit, using 1 μg Trizol-extracted RNA, or 1 μg or all (according to the particular amount) of the RNA extracted by RNeasy FFPE Kit. • 3) Perform real-time quantitative PCR using SYBR Premix Ex Taq kit (TaKaRa), and detect expression of genes with ABI StepOnePlus real-time PCR system (Applied Biosystems). All Q-PCR data were performed with at least 2 repeats.
(§4) For detecting urea secretion ability of the cultured cells, supernatants of cell culture were collected after 24-hour culture and analyzed by urea assay kit (Abnova) according to its protocol.
(§5) For measurement of CYP2B6 metabolism activity of the proliferating human hepatocytes, cells subjected 10 days of hepatic induction and freshly resuscitated human hepatocytes were incubated respectively in a medium containing 100 um bupropion. Supernatants of cell culture were present to RILD Liver Company to detect the production of CYP2B6 metabolites using mass spectrometry. Standard curves were drawn using commercially purchased standards.

ProliHHs [2] = test: In vitro hepatic maturation induction of ProliHHs (3D culture, 10 days; morphology, gene expression, CYP2B6 and urea metabolism); conditions: components added to HM to give HIM
From the text: as §2, §3, §4, §5

Molecule: Cc1c[nH]c(-c2cnc(NCCNc3ccc(C#N)cn3)nc2-c2ccc(Cl)cc2Cl)n1 [CHIR, CHIR99021]
- cell morphology and expansion fold compared with Wnt3a conditioned medium (human hepatocytes): similar
- expansion of human hepatocytes when replacing Wnt3a conditioned medium in HM medium (human hepatocytes): could be expanded

Molecule: C[C@@H]1C[C@H]2[C@@H]3CCC4=CC(=O)C=C[C@]4(C)[C@@]3(F)[C@@H](O)C[C@]2(C)[C@@]1(O)C(=O)CO [DEX, Dexamethasone]
- role in hepatic maturation medium (metabolic maturation, inhibition of progenitor gene expression) (ProliHHs [1]): key factors

Molecule: C=C[C@@]1(C)CC(=O)[C@]2(O)[C@@]3(C)[C@@H](O)CCC(C)(C)[C@@H]3[C@H](O)[C@H](OC(C)=O)[C@@]2(C)O1 [Forskolin]
- role in hepatic maturation medium (metabolic maturation, inhibition of progenitor gene expression) (ProliHHs [2]): key factors

Molecule: Oncostatin M [OSM]
- role in hepatic maturation medium (metabolic maturation, inhibition of progenitor gene expression) (ProliHHs [1]): key factors

B1: Wnt3a purified protein: Purified Wnt3a protein, Wnt signaling pathway agonist (stemimmune LLC) (protein, UniProt P56704 19-352, looked up)
Protein Wnt-3a: SYPIWWSLAVGPQYSSLGSQPILCASIPGLVPKQLRFCRNYVEIMPSVAEGIKIGIQECQHQFRGRRWNCTTVHDSLAIFGPVLDKATRESAFVHAIASAGVAFAVTRSCAEGTAAICGCSSRHQGSPGKGWKWGGCSEDIEFGGMVSREFADARENRPDARSAMNRHNNEAGRQAIASHMHLKCKCHGLSGSCEVKTCWWSQPDFRAIGDFLKDKYDSASEMVVEKHRESRGWVETLRPRYTYFKVPTERDLVYYEASPNFCEPNPETGSFGTRDRTCNVSSHGIDGCDLLCCGRGHNARAERRREKCRCVFHWCCYVSCQECTRVYDVHTCK
- cell morphology and expansion fold compared with Wnt3a conditioned medium (human hepatocytes): similar
- expansion of human hepatocytes when replacing Wnt3a conditioned medium in HM medium (human hepatocytes): could be expanded
